Here are results for 14 compounds from patent publication US20180194762A1 (Pharmacyclics LLC, priority 2017, published 2018).

What all share (format): biochemical
For one experiment, the target named is T1, Btk (Homo sapiens, UniProt Q06187).
T1 construct: purified from insect cells as a full-length construct containing a N-terminal 6X-His tag; His6 (N); made in house; host or cells: insect cells (Method C)
The experiment in a line: Btk in vitro inhibitory activity (one of Method A TR-FRET, Method B electrophoretic mobility shift, Method C radiometric filter binding). As to conditions: wild-type Btk; read-out: Btk-WT IC50. A digest of the protocol:
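Three alternative formats were used. A radiometric filter-binding read used 8 nM full-length His-BTK with 0.2 mg/mL poly(Glu-Tyr) 4:1 (C); microfluidic separation of 1 μM FAM-peptide by 1 nM BTK gave IC50 from 12-point curves (B); TR-FRET at Km ATP, 0.5 nM Btk, gave Ki(app)-derived IC50 (A).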
On the technique in general: In EMSA bound probe runs differently from free probe, usually more slowly.

A further experiment concerns the target T2, TEC (Homo sapiens, UniProt P42680).
T2 sequence (P42680 1-631): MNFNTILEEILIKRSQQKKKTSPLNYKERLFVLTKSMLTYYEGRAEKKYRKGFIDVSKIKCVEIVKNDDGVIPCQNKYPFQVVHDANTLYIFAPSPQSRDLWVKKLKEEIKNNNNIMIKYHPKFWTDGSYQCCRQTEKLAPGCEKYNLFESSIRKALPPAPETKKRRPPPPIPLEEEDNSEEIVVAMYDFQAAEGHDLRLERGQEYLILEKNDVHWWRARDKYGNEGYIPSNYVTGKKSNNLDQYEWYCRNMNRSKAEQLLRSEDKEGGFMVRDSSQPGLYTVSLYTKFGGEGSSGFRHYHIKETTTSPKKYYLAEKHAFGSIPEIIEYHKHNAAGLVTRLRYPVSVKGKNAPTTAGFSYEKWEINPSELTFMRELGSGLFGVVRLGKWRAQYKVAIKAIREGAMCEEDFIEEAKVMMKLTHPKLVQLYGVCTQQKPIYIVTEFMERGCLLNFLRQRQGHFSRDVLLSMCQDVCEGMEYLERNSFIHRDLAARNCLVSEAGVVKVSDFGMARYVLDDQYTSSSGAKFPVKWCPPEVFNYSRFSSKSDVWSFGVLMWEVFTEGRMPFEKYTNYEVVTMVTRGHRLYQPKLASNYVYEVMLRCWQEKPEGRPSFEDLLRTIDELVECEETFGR
The experiment in a line: Inhibition of a panel of kinases (in vitro HotSpot kinase assay, 33P-ATP, 1 μM ATP). As to conditions: for pIC50: HotSpot kinase assay, 1 μM ATP; for TEC/Btk: ratio of TEC IC50 to Btk IC50 (selectivity). A digest of the protocol: (§1)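 At 1 μM ATP spiked with 33P-ATP, substrate phosphorylation by the purified enzymes gives the extent of inhibition.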

The next experiment deals with T3, panel of kinases (Homo sapiens, UniProt P51813).
T3 sequence (P51813 1-675): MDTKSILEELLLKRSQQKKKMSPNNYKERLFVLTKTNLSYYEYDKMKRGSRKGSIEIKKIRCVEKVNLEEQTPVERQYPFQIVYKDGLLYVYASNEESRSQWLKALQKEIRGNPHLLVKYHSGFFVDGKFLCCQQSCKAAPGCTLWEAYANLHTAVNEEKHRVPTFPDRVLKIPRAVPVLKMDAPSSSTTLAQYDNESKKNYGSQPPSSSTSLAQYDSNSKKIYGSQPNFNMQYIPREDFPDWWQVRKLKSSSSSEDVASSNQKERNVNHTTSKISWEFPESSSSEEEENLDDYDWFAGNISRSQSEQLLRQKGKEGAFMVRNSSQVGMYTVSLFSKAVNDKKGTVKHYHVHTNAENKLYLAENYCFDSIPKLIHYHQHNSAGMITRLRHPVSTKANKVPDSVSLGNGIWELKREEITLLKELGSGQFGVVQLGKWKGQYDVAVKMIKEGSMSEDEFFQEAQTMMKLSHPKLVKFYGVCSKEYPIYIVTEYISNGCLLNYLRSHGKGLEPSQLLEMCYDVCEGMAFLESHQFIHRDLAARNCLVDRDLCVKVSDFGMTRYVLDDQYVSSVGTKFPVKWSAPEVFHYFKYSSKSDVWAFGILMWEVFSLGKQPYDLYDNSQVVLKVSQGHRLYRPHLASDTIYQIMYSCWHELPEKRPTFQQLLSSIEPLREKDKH
The experiment in a line: Inhibition of a panel of kinases (in vitro HotSpot kinase assay, 33P-ATP, 1 μM ATP), other kinases. The following applies: BMX wild-type, read-out: BMX-WT IC50. The method, boiled down: as §1

Each structure is given as a SMILES string. pIC50: −log10 of the molar value. Bounds are passed on as bounds.

T1 sequence (Q06187 whole entry): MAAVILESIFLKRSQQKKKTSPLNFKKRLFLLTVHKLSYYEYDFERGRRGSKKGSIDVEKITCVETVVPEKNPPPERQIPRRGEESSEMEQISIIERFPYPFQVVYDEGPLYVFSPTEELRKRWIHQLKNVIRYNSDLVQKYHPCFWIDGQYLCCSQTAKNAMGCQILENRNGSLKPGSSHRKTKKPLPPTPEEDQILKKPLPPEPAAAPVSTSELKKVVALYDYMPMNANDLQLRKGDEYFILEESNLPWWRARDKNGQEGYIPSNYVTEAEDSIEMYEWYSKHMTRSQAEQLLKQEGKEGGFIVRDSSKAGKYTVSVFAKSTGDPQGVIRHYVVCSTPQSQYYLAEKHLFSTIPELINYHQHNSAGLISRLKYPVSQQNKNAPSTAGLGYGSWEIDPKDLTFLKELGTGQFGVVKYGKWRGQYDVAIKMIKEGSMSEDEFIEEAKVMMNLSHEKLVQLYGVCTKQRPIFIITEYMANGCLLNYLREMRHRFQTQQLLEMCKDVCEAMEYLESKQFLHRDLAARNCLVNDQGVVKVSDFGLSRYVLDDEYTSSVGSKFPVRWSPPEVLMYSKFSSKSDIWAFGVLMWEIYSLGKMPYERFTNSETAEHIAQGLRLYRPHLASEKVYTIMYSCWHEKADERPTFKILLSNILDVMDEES

Turning to `C[C@H]1CC[C@@H](Nc2n[nH]c3nccc(-c4ccc(CNC(=O)c5nc(C(C)(C)C)no5)c(F)c4)c23)CN1C(=O)n1ccnc1` [Example 196, 3-tert-butyl-N-{[2-fluoro-4-(3-{[(3R,6S)-1-(1H-imidazole-1-carbonyl)-6-methylpiperidin-3-yl]amino}-1H-pyrazolo[3,4-b]pyridin-4-yl)phenyl]methyl}-1,2,4-oxadiazole-5-carboxamide], the pIC50 on Btk was 8.71; against TEC, 5.80; on panel of kinases it was 5.46. For the same compound, at TEC, the TEC/Btk came to 816.

As to `CC(=O)N[C@@H]1CCN(c2n[nH]c3nccc(-c4ccc(CNC(=O)c5nc(C(C)C)no5)c(F)c4)c23)C1` [Example 200, N-[(4-{3-[(3R)-3-acetamidopyrrolidin-1-yl]-1H-pyrazolo[3,4-b]pyridin-4-yl}-2-fluorophenyl)methyl]-3-(propan-2-yl)-1,2,4-oxadiazole-5-carboxamide], the values for the negative-log IC50 (pIC50) at Btk, against TEC and on panel of kinases were 8.37, 5.83 and 5.85, respectively. The TEC/Btk at TEC worked out at 343.

On to `C[C@@H](NC(=O)c1nc(C(C)(C)C)no1)c1ccc(-c2ccnc3[nH]nc(NC4CCCC4)c23)cc1` [Example 201, 3-tert-butyl-N-[(1R)-1-{4-[3-(cyclopentylamino)-1H-pyrazolo[3,4-b]pyridin-4-yl]phenyl}ethyl]-1,2,4-oxadiazole-5-carboxamide], for which the values for the pIC50 on Btk, against TEC and on panel of kinases were 7.99, 5.08 and 5.17, respectively. In addition, on TEC, the TEC/Btk worked out at 818.

For the compound `C[C@@H](NC(=O)c1cc(C(C)(C)O)on1)c1ccc(-c2ccnc3[nH]nc(NC4CCN(S(C)(=O)=O)CC4)c23)cc1` [Example 203, 5-(2-hydroxypropan-2-yl)-N-{(1R)-1-[4-(3-{[1-(methanesulfonyl)piperidin-4-yl]amino}-1H-pyrazolo[3,4-b]pyridin-4-yl)phenyl]ethyl}-1,2-oxazole-3-carboxamide], the pIC50 at Btk was less than 6.00; against TEC, less than 5.00; at panel of kinases, less than 5.00. Moreover, the TEC/Btk at TEC was more than 10000.

`CC(=O)N1CCC(Nc2n[nH]c3nccc(-c4ccc([C@@H](C)NC(=O)c5cc(C(C)(C)O)on5)cc4)c23)CC1` [Example 204, N-[(1R)-1-(4-{3-[(1-acetylpiperidin-4-yl)amino]-1H-pyrazolo[3,4-b]pyridin-4-yl}phenyl)ethyl]-5-(2-hydroxypropan-2-yl)-1,2-oxazole-3-carboxamide]: the pIC50 is less than 6.00 at Btk, less than 5.00 against TEC and less than 5.00 on panel of kinases. The TEC/Btk at TEC was more than 10000.

With `CC(C)(C)c1noc(C(=O)NCc2ccc(-c3ccnc4[nH]nc(N5CCC(NC(=O)C6CC6)CC5)c34)cc2F)n1` [Example 207, 3-tert-butyl-N-{[4-(3-{4-[(cyclopropanecarbonyl)amino]piperidin-1-yl}-1H-pyrazolo[3,4-b]pyridin-4-yl)-2-fluorophenyl]methyl}-1,2,4-oxadiazole-5-carboxamide], the pIC50 at Btk is 9.43; on TEC, 6.09; on panel of kinases, 5.91. In addition, on TEC, the TEC/Btk is reported as 2173.

On to `CC(C)(C)c1noc(C(=O)NCc2ccc(-c3ccnc4[nH]nc(N5CCC(NC(=O)c6ccccc6)CC5)c34)cc2F)n1` [Example 208, N-({4-[3-(4-benzamidopiperidin-1-yl)-1H-pyrazolo[3,4-b]pyridin-4-yl]-2-fluorophenyl}methyl)-3-tert-butyl-1,2,4-oxadiazole-5-carboxamide], for which the pIC50 at Btk is 9.18; at TEC, 5.77; at panel of kinases it was 5.68. Besides, the TEC/Btk on TEC was determined as 2599.

`CCNC(=O)N1C[C@H](Nc2n[nH]c3nccc(-c4ccc(CNC(=O)c5nc(C(C)(C)C)no5)c(F)c4)c23)CC[C@@H]1C` [Example 209, (2S,5R)-5-{[4-(4-{[(3-tert-butyl-1,2,4-oxadiazole-5-carbonyl)amino]methyl}-3-fluorophenyl)-1H-pyrazolo[3,4-b]pyridin-3-yl]amino}-N-ethyl-2-methylpiperidine-1-carboxamide]: the pIC50 at Btk is 8.90; against TEC, 6.04; at panel of kinases, 5.66. Also, the TEC/Btk at TEC was 718.

Consider `C[C@@H](NC(=O)c1nc(C(C)(C)C)no1)c1ccc(-c2ccnc3[nH]nc(N4CCOCC4)c23)cc1` [Example 219, 3-tert-butyl-N-[(1R)-1-{4-[3-(morpholin-4-yl)-1H-pyrazolo[3,4-b]pyridin-4-yl]phenyl}ethyl]-1,2,4-oxadiazole-5-carboxamide], for which the pIC50 at Btk is 9.73; on TEC, 6.11; on panel of kinases it was 6.24. In addition, the TEC/Btk on TEC stood at 4199.

In the case of `C[C@@H](NC(=O)c1nc(C(C)(C)C)no1)c1ccc(-c2ccnc3[nH]nc(N4CCS(=O)(=O)CC4)c23)cc1` [Example 220, 3-tert-butyl-N-[(1R)-1-{4-[3-(1,1-dioxo-1λ^6-thiomorpholin-4-yl)-1H-pyrazolo[3,4-b]pyridin-4-yl]phenyl}ethyl]-1,2,4-oxadiazole-5-carboxamide], the pIC50 on Btk was 8.83; against TEC, 5.05; at panel of kinases, 5.24. The TEC/Btk at TEC turned out to be 6013.

As for `CC(C)(C)c1noc(C(=O)NCc2ccc(-c3ccnc4[nH]nc(N5CCC(NS(=O)(=O)C6CC6)CC5)c34)cc2F)n1` [Example 224, 3-tert-butyl-N-{[4-(3-{4-[(cyclopropanesulfonyl)amino]piperidin-1-yl}-1H-pyrazolo[3,4-b]pyridin-4-yl)-2-fluorophenyl]methyl}-1,2,4-oxadiazole-5-carboxamide], the pIC50 on Btk was 10.03; at TEC, 6.54; at panel of kinases, 6.60. Moreover, at TEC, the TEC/Btk is reported as 3121.

Consider `COC(=O)N1C[C@H](Nc2n[nH]c3nccc(-c4ccc(CNC(=O)c5noc(C(C)(C)C)n5)c(F)c4)c23)CC[C@@H]1C` [Example 226, methyl (2S,5R)-5-{[4-(4-{[(5-tert-butyl-1,2,4-oxadiazole-3-carbonyl)amino]methyl}-3-fluorophenyl)-1H-pyrazolo[3,4-b]pyridin-3-yl]amino}-2-methylpiperidine-1-carboxylate], for which the pIC50 on Btk was 8.83; against TEC, 5.86; at panel of kinases, 5.68. The TEC/Btk at TEC amounted to 926.

Regarding `C[C@H]1CC[C@@H](Nc2n[nH]c3nccc(-c4ccc(CNC(=O)c5noc(C(C)(C)C)n5)c(F)c4)c23)CN1C(=O)CO` [Example 227, 5-tert-butyl-N-{[2-fluoro-4-(3-{[(3R,6S)-1-(hydroxyacetyl)-6-methylpiperidin-3-yl]amino}-1H-pyrazolo[3,4-b]pyridin-4-yl)phenyl]methyl}-1,2,4-oxadiazole-3-carboxamide], the pIC50 at Btk was 9.34; on TEC, 6.69; at panel of kinases, 6.15. Also, on TEC, the TEC/Btk turned out to be 448.

Consider `CC(=O)N1C[C@H](Nc2n[nH]c3nccc(-c4ccc(CNC(=O)c5noc(C(C)(C)C)n5)c(F)c4)c23)CC[C@@H]1C` [Example 229, N-{[4-(3-{[(3R,6S)-1-acetyl-6-methylpiperidin-3-yl]amino}-1H-pyrazolo[3,4-b]pyridin-4-yl)-2-fluorophenyl]methyl}-5-tert-butyl-1,2,4-oxadiazole-3-carboxamide], for which the pIC50 is 9.42 at Btk, 6.53 against TEC and 6.27 on panel of kinases. In addition, the TEC/Btk at TEC is 778.

The pIC50 is −log10 of the IC50, conventionally taken in molar units.
